Measurements taken from patent publication US9085555B2, “Complement pathway modulators and uses thereof” (priority 2011, dated 2015).

Biological target: Factor D (Homo sapiens (Human), UniProt P00746)
Test: biochemical
Assay type: biochemical
Conditions: read-out: IC50

Factor D, sequence (P00746 26-253): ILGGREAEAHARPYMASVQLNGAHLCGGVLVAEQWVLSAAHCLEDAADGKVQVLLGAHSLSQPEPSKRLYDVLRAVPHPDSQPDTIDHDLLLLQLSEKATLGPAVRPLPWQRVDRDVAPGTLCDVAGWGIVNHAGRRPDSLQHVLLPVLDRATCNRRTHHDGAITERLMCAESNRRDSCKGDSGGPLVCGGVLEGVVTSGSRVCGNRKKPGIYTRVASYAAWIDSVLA

Work on `CC(=O)c1cn(CC(=O)N2C[C@H](F)C[C@H]2C(=O)NCc2cccc(Cl)c2F)c2ncccc12` [Example 547, (2S,4R)-1-[2-(3-Acetyl-pyrrolo[2,3-b]pyridin-1-yl)-acetyl]-4-fluoro-pyrrolidine-2-carboxylic acid 3-chloro-2-fluoro-benzylamide] yielded an IC50 of 38 nM.

Compound `COC(=O)c1ccc2c(C(C)=O)cn(CC(=O)N3C[C@](C)(F)C[C@H]3C(=O)NCc3cccc(Cl)c3F)c2c1` [Example 548, 3-Acetyl-1-{2-[(2S,4R)-2-(3-chloro-2-fluoro-benzylcarbamoyl)-4-fluoro-4-methyl-pyrrolidin-1-yl]-2-oxo-ethyl}-1H-indole-6-carboxylic acid methyl ester] has an IC50 of 363 nM.

With `COC(=O)Cc1ccc2c(C(C)=O)cn(CC(=O)N3C[C@H](F)C[C@H]3C(=O)NCc3cccc(Cl)c3F)c2c1` [Example 549, (3-Acetyl-1-{2-[(2S,4R)-2-(3-chloro-2-fluoro-benzylcarbamoyl)-4-fluoro-pyrrolidin-1-yl]-2-oxo-ethyl}-1H-indol-6-yl)-acetic acid methyl ester] the IC50 was 69 nM.

For `CC(=O)c1cn(CC(=O)N2[C@@H]3C[C@@H]3C[C@H]2C(=O)NCc2cccc(Cl)c2F)c2cnccc12` [Example 550, (1R,3S,5R)-2-[2-(3-Acetyl-pyrrolo[2,3-c]pyridin-1-yl)-acetyl]-2-aza-bicyclo[3.1.0]hexane-3-carboxylic acid 3-chloro-2-fluorobenzylamide], the IC50 was 33 nM.

Compound `O=C(CO)c1cn(CC(=O)N2C[C@H](F)C[C@H]2C(=O)N[C@H](CF)c2cccc(Br)c2)c2ccccc12` [Example 551, (2S,4R)-4-Fluoro-1-{2-[3-(2-hydroxy-acetyl)-indol-1-yl]-acetyl}-pyrrolidine-2-carboxylic acid [(S)-1-(3-bromo-phenyl)-2-fluoro-ethyl]-amide] has an IC50 of 899 nM.

For `CC(=O)c1cn(CC(=O)N2C[C@H](F)C[C@H]2C(=O)NCc2cccc(Cl)c2F)c2cnccc12` [Example 552, (2S,4R)-1-[2-(3-Acetyl-pyrrolo[2,3-c]pyridin-1-yl)-acetyl]-4-fluoro-pyrrolidine-2-carboxylic acid 3-chloro-2-fluoro-benzylamide], the IC50 was 40 nM.

For `CC(=O)c1cn(CC(=O)N2[C@@H]3C[C@@H]3C[C@H]2C(=O)NCc2cccc(Cl)c2F)c2cccnc12` [Example 553, (1R,3S,5R)-2-[2-(3-Acetyl-pyrrolo[3,2-b]pyridin-1-yl)-acetyl]-2-aza-bicyclo[3.1.0] hexane-3-carboxylic acid 3-chloro-2-fluoro-benzylamide], the IC50 was 5300 nM.

`C[C@@]1(F)C[C@@H](C(=O)NCc2cccc(Cl)c2F)N(C(=O)Cn2cc(C(=O)C(F)(F)F)c3ccccc32)C1` [Example 554, (2S,4R)-4-Fluoro-4-methyl-1-{2-[3-(2,2,2-trifluoro-acetyl)-indol-1-yl]-acetyl}-pyrrolidine-2-carboxylic acid 3-chloro-2-fluoro-benzylamide] was tested, and the IC50 was 44 nM.

With `CC(=O)c1cn(CC(=O)N2C[C@@H](N(C)C)[C@H](F)[C@H]2C(=O)NCc2cccc(Cl)c2F)c2ccccc12` [Example 555, (2R,3S,4R)-1-[2-(3-Acetyl-indol-1-yl)-acetyl]-4-dimethylamino-3-fluoro-pyrrolidine-2-carboxylic acid 3-chloro-2-fluoro-benzylamide] the IC50 was 2270 nM.

With `O=C(CO)c1cn(CC(=O)N2[C@@H]3C[C@@H]3C[C@H]2C(=O)NCc2cccc(Cl)c2F)c2ccccc12` [Example 556, (1R,3S,5R)-2-{2-[3-(2-Hydroxy-acetyl)-indol-1-yl]-acetyl}-2-aza-bicyclo[3.1.0] hexane-3-carboxylic acid 3-chloro-2-fluoro-benzylamide] the IC50 was 25 nM.

`CC(=O)c1cn(CC(=O)N2[C@@H]3C[C@@H]3C[C@H]2C(=O)N[C@H](CCO)c2cccc(Cl)c2F)c2ncccc12` [Example 557, (1R,3S,5R)-2-[2-(3-Acetyl-pyrrolo[2,3-b]pyridin-1-yl)-acetyl]-2-aza-bicyclo[3.1.0] hexane-3-carboxylic acid [(R)-1-(3-chloro-2-fluoro-phenyl)-3-hydroxy-propyl]-amide] showed an IC50 of 134 nM.

`CC(=O)c1cn(CC(=O)N2[C@@H]3C[C@@H]3C[C@H]2C(=O)Nc2cccc(OC(F)(F)F)c2)c2ncccc12` [Example 558, (1R,3S,5R)-2-[2-(3-Acetyl-pyrrolo[2,3-b]pyridin-1-yl)-acetyl]-2-aza-bicyclo[3.1.0] hexane-3-carboxylic acid (3-trifluoromethoxy-phenyl)-amide] showed an IC50 of 1990 nM.

In the case of `COc1ccc2c(c1)c(C=O)cn2CC(=O)N1C[C@H](F)C[C@H]1C(=O)NCc1cccc(Cl)c1F` [Example 560, (2S,4R)-4-Fluoro-1-[2-(3-formyl-5-methoxy-indol-1-yl)-acetyl]-pyrrolidine-2-carboxylic acid 3-chloro-2-fluoro-benzylamide], the IC50 is reported as 141 nM.

For `O=C(NCc1cccc(Cl)c1F)[C@@H]1C[C@@H](F)CN1C(=O)Cn1cc(C(=O)C(F)(F)F)c2ccccc21` [Example 561, (2S,4R)-4-Fluoro-1-{2-[3-(2,2,2-trifluoro-acetyl)-indol-1-yl]-acetyl}-pyrrolidine-2-carboxylic acid 3-chloro-2-fluoro-benzylamide], the IC50 was 14 nM.

For `CC(=O)c1cn(CC(=O)N2[C@@H]3C[C@@H]3C[C@H]2C(=O)Nc2cccc(OC(F)(F)F)c2F)c2ncccc12` [Example 562, (1R,3S,5R)-2-[2-(3-Acetyl-pyrrolo[2,3-b]pyridin-1-yl)-acetyl]-2-aza-bicyclo[3.1.0]hexane-3-carboxylic acid (2-fluoro-3-trifluoromethoxy-phenyl)-amide], the IC50 was 804 nM.

Compound `O=C(CO)c1cn(CC(=O)N2C[C@H](F)C[C@H]2C(=O)NCc2cccc(Cl)c2F)c2ccccc12` [Example 563, (2S,4R)-4-Fluoro-1-{2-[3-(2-hydroxy-acetyl)-indol-1-yl]-acetyl}-pyrrolidine-2-carboxylic acid 3-chloro-2-fluoro-benzylamide] has an IC50 of 42 nM.

In the case of `O=C(CO)c1cn(CC(=O)N2C[C@H](F)C[C@H]2C(=O)NCc2cccc(Br)c2F)c2ccccc12` [Example 564, (2S,4R)-4-Fluoro-1-{2-[3-(2-hydroxy-acetyl)-indol-1-yl]-acetyl}-pyrrolidine-2-carboxylic acid 3-bromo-2-fluoro-benzylamide], the IC50 is reported as 13 nM.

`COCC(=O)c1cn(CC(=O)N2C[C@H](F)C[C@H]2C(=O)NCc2cccc(Cl)c2F)c2ccccc12` [Example 565, (2S,4R)-4-Fluoro-1-{2-[3-(2-methoxy-acetyl)-indol-1-yl]-acetyl}-pyrrolidine-2-carboxylic acid 3-chloro-2-fluoro-benzylamide] showed an IC50 of 369 nM.

`NC(=O)c1cn(CC(=O)N2C[C@@](F)(CO)C[C@H]2C(=O)NCc2cccc(Cl)c2F)c2ccccc12` [Example 566, 1-{2-[(2S,4R)-2-(3-Chloro-2-fluoro-benzylcarbamoyl)-4-fluoro-4-hydroxymethyl-pyrrolidin-1-yl]-2-oxo-ethyl}-1H-indole-3-carboxylic acid amide] gave an IC50 of 436 nM.

Compound `NC(=O)c1cn(CC(=O)N2CCS[C@H]2C(=O)NCc2cccc(Cl)c2F)c2ccccc12` [Example 567, 1-{2-[(S)-2-(3-Chloro-2-fluoro-benzylcarbamoyl)-thiazolidin-3-yl]-2-oxo-ethyl}-1H-indole-3-carboxylic acid amide] has an IC50 of 293 nM.

For `COC[C@@H](NC(=O)[C@@H]1C[C@H]2C[C@H]2N1C(=O)Cn1cc(C(C)=O)c2ccccc21)c1cccc(Cl)c1F` [Example 568, (1R,3S,5R)-2-[2-(3-Acetyl-indol-1-yl)-acetyl]-2-aza-bicyclo[3.1.0]hexane-3-carboxylic acid [(S)-1-(3-chloro-2-fluoro-phenyl)-2-methoxy-ethyl]-amide], the IC50 was 121 nM.

Work on `CCO[C@H]1[C@@H](C(=O)NCc2cccc(Cl)c2F)N(C(=O)Cn2cc(C(C)=O)c3ccccc32)C[C@@H]1F` [Example 569, (2S,3S,4S)-1-[2-(3-Acetyl-indol-1-yl)-acetyl]-4-fluoro-3-ethoxy-pyrrolidine-2-carboxylic acid 3-chloro-2-fluoro-benzylamide] yielded an IC50 of 13 nM.

Compound `CO[C@H]1[C@@H](C(=O)N[C@H](C)c2cccc(Cl)c2F)N(C(=O)Cn2cc(C(C)=O)c3ccccc32)C[C@@H]1F` [Example 570, (2S,3S,4S)-1-[2-(3-Acetyl-indol-1-yl)-acetyl]-4-fluoro-3-methoxy-pyrrolidine-2-carboxylic acid [(R)-1-(3-chloro-2-fluoro-phenyl)-ethyl]-amide] has an IC50 of 27 nM.

Work on `CO[C@H]1[C@@H](C(=O)N[C@@H](C)c2cccc(Cl)c2F)N(C(=O)Cn2cc(C(C)=O)c3ccccc32)C[C@@H]1F` [Example 571, (2S,3S,4S)-1-[2-(3-Acetyl-indol-1-yl)-acetyl]-4-fluoro-3-methoxy-pyrrolidine-2-carboxylic acid [(S)-1-(3-chloro-2-fluoro-phenyl)-ethyl]-amide] yielded an IC50 of 99 nM.

In the case of `CO[C@H]1[C@@H](C(=O)NC2(c3cccc(Cl)c3)CC2)N(C(=O)Cn2cc(C(C)=O)c3ccccc32)C[C@@H]1F` [Example 572, (2S,3S,4S)-1-[2-(3-Acetyl-indol-1-yl)-acetyl]-4-fluoro-3-methoxy-pyrrolidine-2-carboxylic acid [1-(3-chloro-phenyl)-cyclopropyl]-amide], the IC50 is reported as 284 nM.

Work on `CO[C@H]1[C@@H](C(=O)NC2(c3ccc(Cl)cc3)CC2)N(C(=O)Cn2cc(C(C)=O)c3ccccc32)C[C@@H]1F` [Example 573, (2S,3S,4S)-1-[2-(3-Acetyl-indol-1-yl)-acetyl]-4-fluoro-3-methoxy-pyrrolidine-2-carboxylic acid [1-(4-chloro-phenyl)-cyclopropyl]-amide] yielded an IC50 of 865 nM.

`NC(=O)c1cn(CC(=O)N2C[C@H](F)[C@@H](N)[C@H]2C(=O)NCc2cccc(Cl)c2F)c2ccccc12` [Example 574, 1-{2-[(2S,3S,4S)-3-Amino-2-(3-chloro-2-fluoro-benzylcarbamoyl)-4-fluoro-pyrrolidin-1-yl]-2-oxo-ethyl}-1H-indole-3-carboxylic acid amide] was tested, and the IC50 was 217 nM.

`CC(=O)c1cn(CC(=O)N2C[C@H](F)[C@@H](N)[C@H]2C(=O)NCc2cccc(Cl)c2F)c2ccccc12` [Example 575, (2S,3S,4S)-1-[2-(3-Acetyl-indol-1-yl)-acetyl]-3-amino-4-fluoro-pyrrolidine-2-carboxylic acid 3-chloro-2-fluoro-benzylamide] showed an IC50 of 843 nM.
